The values below are quoted from earlier work in patent publication US9161929B2, “Solvent cast film sustained release latanoprost implant” (ALLERGAN, INC., priority 2011, dated 2015).

As for `CC(C)OC(=O)CCC/C=C\C[C@@H]1[C@@H](CC[C@@H](O)CCc2ccccc2)[C@H](O)C[C@@H]1O` [Latanoprost], the “solubility in acetone, ethanol, ethyl acetate, isopropanol, methanol and octanol” value is “freely soluble”.
